Measured values from patent publication US20260327204A1, “DEGRADERS OF CYCLIN-DEPENDENT KINASE 12/13, COMPOSITIONS, AND USES THEREOF” (ZHEJIANG UNIVERSITY, priority 2023, published 2026).

Columns and labels:
CDK12 = CDK12 (Homo sapiens, UniProt Q9NYV4); assay: Western blot degradation of CDK12 (Example 2); format: cell-based; set-up: degradation of CDK12/13 protein in leukemia cells KASUMI-1, MV4-11, and Jurkat; endogenous in cells; settings: DC50 classes, cell line not given; for DC50: read-out: CDK12 degradation Activity
Method: (§1) Western blot was used to determine the degradation of CDK12/13 protein in leukemia cells KASUMI-1, MV4-11, and Jurkat. The two compounds with the best degradation effects were further validated for their ability to degrade CDK12/13 protein in breast cancer cells MDA-MB-231 using a concentration gradient.
(§2) • Cell lines: KASUMI-1, MV4-11, Jurkat, or MDA-MB-231 • Culture medium: DMEM/RIPM-1640+10% Hyclone serum • Compound dissolution method: Compounds were dissolved in DMSO to prepare a 50 mM stock solution, and then diluted to the corresponding concentrations.
(§3) (1) In vitro cell culture: The selected cells were cultured in a 37 °C constant temperature incubator with 5% CO2. Once the cell density reached 70-90%, they were passaged for subsequent experiments.
(§4) (2) Cell seeding: Cells were digested, and the cell suspension was transferred to a 1.5 mL Eppendorf tube. After centrifugation at 1,000 rpm for 5 min, the cells were resuspended in 2 mL of culture medium and counted. The cell suspension was seeded in a 24-well plate at a density of 200,000 cells per well and allowed to adhere for 8-12 h.
(§5) (3) Compound treatment: The 50 mM compound stock solution was diluted with cell culture medium to a final concentration of 0.01 μM-3 μM. Cells were incubated in a 37 °C incubator with 5% CO2 for 3 h-48 h. The DMSO group served as the negative control.
(§6) At the end of the treatment time, the cells were collected and washed once with PBS. An appropriate volume of 4% SDS was added to lyse the cells, and the mixture was sonicated until no longer viscous. After centrifugation at 12,000 rpm at room temperature for 30 min, the supernatant was transferred to a new EP tube for protein quantification.
(§7) The exposure results were quantitatively analyzed using Image J software. First, the grayscale values of the bands were calculated using Image J. Then, the grayscale value of the target protein was divided by the grayscale value of the internal reference protein for normalization. The calculation formula is: […]
(§8) Where A is the grayscale value and D is the degradation rate.
(§9) In the figures, CDK12 and CDK13 are the target proteins under study, and β-Actin and GAPDH are the internal reference proteins. Internal reference proteins are used to indicate the total protein amount in each experimental group for quantitative analysis.

CDK13 = CDK13 (Homo sapiens, UniProt Q14004); assay: Western blot degradation of CDK13 (Example 2); format: cell-based; set-up: degradation of CDK12/13 protein in leukemia cells KASUMI-1, MV4-11, and Jurkat; endogenous in cells; settings: DC50 classes, cell line not given; for DC50: read-out: CDK13 degradation Activity
Method: as §1, §2, §3, §4, §5, §6, §7, §8, §9

Sequence of CDK13 (Q14004 whole entry): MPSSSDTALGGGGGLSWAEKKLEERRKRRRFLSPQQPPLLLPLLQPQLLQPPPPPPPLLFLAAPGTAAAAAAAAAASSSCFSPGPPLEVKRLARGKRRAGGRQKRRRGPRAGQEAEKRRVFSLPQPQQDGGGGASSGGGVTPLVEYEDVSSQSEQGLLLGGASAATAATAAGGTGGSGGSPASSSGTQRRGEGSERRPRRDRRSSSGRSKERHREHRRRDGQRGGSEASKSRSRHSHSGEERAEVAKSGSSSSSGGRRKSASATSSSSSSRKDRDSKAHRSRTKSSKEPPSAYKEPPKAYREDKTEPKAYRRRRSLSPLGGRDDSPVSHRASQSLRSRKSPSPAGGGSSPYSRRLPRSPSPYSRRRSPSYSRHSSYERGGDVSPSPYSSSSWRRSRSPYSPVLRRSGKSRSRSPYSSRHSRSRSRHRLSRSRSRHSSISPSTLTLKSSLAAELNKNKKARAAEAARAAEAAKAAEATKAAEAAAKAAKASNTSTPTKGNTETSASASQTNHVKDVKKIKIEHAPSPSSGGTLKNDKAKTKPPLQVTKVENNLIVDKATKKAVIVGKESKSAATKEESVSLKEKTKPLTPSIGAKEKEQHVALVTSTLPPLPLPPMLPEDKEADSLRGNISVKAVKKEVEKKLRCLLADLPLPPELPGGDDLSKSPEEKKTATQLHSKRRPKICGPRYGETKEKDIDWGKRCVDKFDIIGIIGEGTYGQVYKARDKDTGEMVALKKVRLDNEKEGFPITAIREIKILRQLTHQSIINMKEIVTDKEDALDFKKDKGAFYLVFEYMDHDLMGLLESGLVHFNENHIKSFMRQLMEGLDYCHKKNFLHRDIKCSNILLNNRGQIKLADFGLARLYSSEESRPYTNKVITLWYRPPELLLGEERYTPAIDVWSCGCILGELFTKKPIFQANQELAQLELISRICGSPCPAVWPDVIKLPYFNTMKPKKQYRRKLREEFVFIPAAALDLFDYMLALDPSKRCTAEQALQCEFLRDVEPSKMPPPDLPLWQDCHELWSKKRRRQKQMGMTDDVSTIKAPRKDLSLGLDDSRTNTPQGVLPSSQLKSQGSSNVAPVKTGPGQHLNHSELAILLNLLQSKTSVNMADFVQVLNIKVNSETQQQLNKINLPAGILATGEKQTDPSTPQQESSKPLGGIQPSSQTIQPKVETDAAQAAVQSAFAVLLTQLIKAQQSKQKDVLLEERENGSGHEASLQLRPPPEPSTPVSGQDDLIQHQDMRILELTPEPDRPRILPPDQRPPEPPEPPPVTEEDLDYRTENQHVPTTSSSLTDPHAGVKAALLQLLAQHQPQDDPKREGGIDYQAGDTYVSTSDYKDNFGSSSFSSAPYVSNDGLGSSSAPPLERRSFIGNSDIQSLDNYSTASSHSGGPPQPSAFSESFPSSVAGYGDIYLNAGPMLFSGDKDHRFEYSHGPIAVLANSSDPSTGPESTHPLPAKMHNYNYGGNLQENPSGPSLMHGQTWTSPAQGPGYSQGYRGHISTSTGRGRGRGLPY
Sequence of CDK13 (O75909 whole entry partner): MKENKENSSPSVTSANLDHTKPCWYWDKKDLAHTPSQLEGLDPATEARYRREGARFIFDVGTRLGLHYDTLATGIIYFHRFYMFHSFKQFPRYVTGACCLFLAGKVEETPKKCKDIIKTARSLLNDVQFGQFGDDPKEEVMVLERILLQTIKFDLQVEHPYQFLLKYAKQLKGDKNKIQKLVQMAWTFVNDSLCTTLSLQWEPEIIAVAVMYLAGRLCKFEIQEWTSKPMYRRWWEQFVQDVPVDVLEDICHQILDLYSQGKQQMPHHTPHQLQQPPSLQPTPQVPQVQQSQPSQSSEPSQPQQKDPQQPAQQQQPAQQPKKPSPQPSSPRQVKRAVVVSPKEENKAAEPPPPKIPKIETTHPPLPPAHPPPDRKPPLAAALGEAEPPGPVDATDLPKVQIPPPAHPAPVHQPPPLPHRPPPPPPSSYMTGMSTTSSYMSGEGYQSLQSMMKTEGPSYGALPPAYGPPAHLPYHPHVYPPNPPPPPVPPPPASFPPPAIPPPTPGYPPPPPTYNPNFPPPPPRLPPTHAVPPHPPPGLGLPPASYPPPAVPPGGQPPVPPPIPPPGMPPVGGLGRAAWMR
Sequence of CDK12 (Q9NYV4 whole entry): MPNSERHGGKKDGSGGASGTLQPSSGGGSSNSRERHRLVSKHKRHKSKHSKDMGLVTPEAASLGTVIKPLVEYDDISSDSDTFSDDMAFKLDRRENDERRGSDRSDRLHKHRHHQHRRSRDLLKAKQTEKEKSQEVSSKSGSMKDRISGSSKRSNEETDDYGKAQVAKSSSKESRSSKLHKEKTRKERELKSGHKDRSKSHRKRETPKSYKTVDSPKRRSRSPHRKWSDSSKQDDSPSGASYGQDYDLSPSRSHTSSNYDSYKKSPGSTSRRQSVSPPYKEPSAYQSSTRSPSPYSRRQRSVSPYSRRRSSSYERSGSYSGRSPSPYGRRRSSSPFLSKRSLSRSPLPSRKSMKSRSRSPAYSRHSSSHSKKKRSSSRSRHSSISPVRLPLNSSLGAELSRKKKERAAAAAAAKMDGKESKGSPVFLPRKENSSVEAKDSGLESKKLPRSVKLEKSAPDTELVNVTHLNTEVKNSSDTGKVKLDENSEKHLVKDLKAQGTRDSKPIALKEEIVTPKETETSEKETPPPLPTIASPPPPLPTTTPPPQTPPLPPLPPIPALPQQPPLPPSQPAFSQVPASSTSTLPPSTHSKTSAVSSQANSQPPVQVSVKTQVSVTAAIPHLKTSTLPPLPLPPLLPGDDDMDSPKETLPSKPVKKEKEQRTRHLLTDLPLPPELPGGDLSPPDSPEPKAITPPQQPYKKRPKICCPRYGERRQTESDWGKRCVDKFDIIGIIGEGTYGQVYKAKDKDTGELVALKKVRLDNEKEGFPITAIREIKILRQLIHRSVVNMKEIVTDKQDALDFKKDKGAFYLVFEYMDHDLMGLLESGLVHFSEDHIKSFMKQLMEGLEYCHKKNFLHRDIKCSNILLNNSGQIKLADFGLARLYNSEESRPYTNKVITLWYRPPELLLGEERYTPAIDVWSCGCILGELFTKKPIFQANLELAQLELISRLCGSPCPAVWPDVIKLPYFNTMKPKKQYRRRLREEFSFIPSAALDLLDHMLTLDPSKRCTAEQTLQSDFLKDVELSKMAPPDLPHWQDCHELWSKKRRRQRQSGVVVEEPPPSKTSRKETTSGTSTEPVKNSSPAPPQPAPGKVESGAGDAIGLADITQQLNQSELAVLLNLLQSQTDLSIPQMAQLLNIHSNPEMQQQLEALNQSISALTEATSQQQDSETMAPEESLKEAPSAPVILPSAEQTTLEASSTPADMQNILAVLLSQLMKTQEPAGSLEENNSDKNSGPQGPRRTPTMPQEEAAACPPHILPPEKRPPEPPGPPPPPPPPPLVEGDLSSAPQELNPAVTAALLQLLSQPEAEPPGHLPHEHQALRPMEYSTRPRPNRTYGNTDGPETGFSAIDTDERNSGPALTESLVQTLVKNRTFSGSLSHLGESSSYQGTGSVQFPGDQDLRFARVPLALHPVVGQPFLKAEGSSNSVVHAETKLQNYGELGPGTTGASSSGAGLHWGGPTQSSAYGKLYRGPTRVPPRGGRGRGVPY
Sequence of CDK12 (O75909 whole entry partner): as the sequence (O75909 whole entry partner) above

SMILES	DC50 (CDK12)	DC50 (CDK13)	CDK13 degradation Activity (CDK13)	CDK12 degradation Activity (CDK12)
Cc1ncsc1-c1ccc([C@H](C)NC(=O)[C@@H]2C[C@@H](O)CN2C(=O)[C@@H](NC(=O)CN2CCN(c3ccc(-c4ccc(N(C(=O)NCc5ccccc5)[C@H]5CC[C@H](Nc6ccc(C#N)cn6)CC5)cc4)cn3)CC2)C(C)(C)C)cc1 (racemic) [Formula 73]	< 0.1 µM	< 0.1 µM		
Cc1ncsc1-c1ccc([C@H](C)NC(=O)[C@@H]2C[C@@H](O)CN2C(=O)[C@@H](NC(=O)CN2CCN(c3ncc(-c4ccc(N(C(=O)NCc5ccccc5)[C@H]5CC[C@H](Nc6ccc(C#N)cn6)CC5)cc4)cn3)CC2)C(C)(C)C)cc1 (racemic) [Formula 81]	< 0.1 µM	< 0.1 µM		
Cc1ncsc1-c1ccc([C@H](C)NC(=O)[C@@H]2C[C@@H](O)CN2C(=O)[C@@H](NC(=O)COCCOc2ccc(-c3ccc(N(C(=O)NCc4ccccc4)[C@H]4CC[C@H](Nc5ccc(C#N)cn5)CC4)cc3)cn2)C(C)(C)C)cc1 [Formula 1]	0.1 to 0.5 µM	0.1 to 0.5 µM		
Cc1ncsc1-c1ccc([C@H](C)NC(=O)[C@@H]2C[C@@H](O)CN2C(=O)[C@@H](NC(=O)COCCOCCOc2ccc(-c3ccc(N(C(=O)NCc4ccccc4)[C@H]4CC[C@H](Nc5ccc(C#N)cn5)CC4)cc3)cn2)C(C)(C)C)cc1 [Formula 2]	1 to 3 µM	0.5 to 1 µM		
Cc1ncsc1-c1ccc([C@H](C)NC(=O)[C@@H]2C[C@@H](O)CN2C(=O)[C@@H](NC(=O)COCCOCCOCCOc2ccc(-c3ccc(N(C(=O)NCc4ccccc4)[C@H]4CC[C@H](Nc5ccc(C#N)cn5)CC4)cc3)cn2)C(C)(C)C)cc1 [Formula 3]	3 to 10 µM	3 to 10 µM		
Cc1ncsc1-c1ccc([C@H](C)NC(=O)[C@@H]2C[C@@H](O)CN2C(=O)[C@@H](NC(=O)COCCOCCOCCOCCOc2ccc(-c3ccc(N(C(=O)NCc4ccccc4)[C@H]4CC[C@H](Nc5ccc(C#N)cn5)CC4)cc3)cn2)C(C)(C)C)cc1 [Formula 4]	3 to 10 µM	3 to 10 µM		
Cc1ncsc1-c1ccc([C@H](C)NC(=O)[C@@H]2C[C@@H](O)CN2C(=O)[C@@H](NC(=O)COc2ccc(-c3ccc(N(C(=O)NCc4ccccc4)[C@H]4CC[C@H](Nc5ccc(C#N)cn5)CC4)cc3)cn2)C(C)(C)C)cc1 [Formula 6]	1 to 3 µM	0.5 to 1 µM		
Cc1ncsc1-c1ccc([C@H](C)NC(=O)[C@@H]2C[C@@H](O)CN2C(=O)[C@@H](NC(=O)COCCN2CCN(c3ccc(N(C(=O)NCc4ccccc4)[C@H]4CC[C@H](Nc5ccc(C#N)cn5)CC4)cc3)CC2)C(C)(C)C)cc1 [Formula 7]	1 to 3 µM	3 to 10 µM		
Cc1ncsc1-c1ccc([C@H](C)NC(=O)[C@@H]2C[C@@H](O)CN2C(=O)[C@@H](NC(=O)COCCOCCN2CCN(c3ccc(N(C(=O)NCc4ccccc4)[C@H]4CC[C@H](Nc5ccc(C#N)cn5)CC4)cc3)CC2)C(C)(C)C)cc1 [Formula 8]	0.5 to 1 µM	0.5 to 1 µM		
Cc1ncsc1-c1ccc([C@H](C)NC(=O)[C@@H]2C[C@@H](O)CN2C(=O)[C@@H](NC(=O)COCCOCCOCCN2CCN(c3ccc(N(C(=O)NCc4ccccc4)[C@H]4CC[C@H](Nc5ccc(C#N)cn5)CC4)cc3)CC2)C(C)(C)C)cc1 [Formula 9]	3 to 10 µM	3 to 10 µM		
Cc1ncsc1-c1ccc([C@H](C)NC(=O)[C@@H]2C[C@@H](O)CN2C(=O)[C@@H](NC(=O)CN2CCN(c3ccc(N(C(=O)NCc4ccccc4)[C@H]4CC[C@H](Nc5ccc(C#N)cn5)CC4)cc3)CC2)C(C)(C)C)cc1 [Formula 10]	1 to 3 µM	1 to 3 µM		
Cc1ncsc1-c1ccc([C@H](C)NC(=O)[C@@H]2C[C@@H](O)CN2C(=O)[C@@H](NC(=O)CN2CCC(Oc3ccc(-c4ccc(N(C(=O)NCc5ccccc5)[C@H]5CC[C@H](Nc6ccc(C#N)cn6)CC5)cc4)cn3)CC2)C(C)(C)C)cc1 [Formula 11]	0.5 to 1 µM	0.1 to 0.5 µM		
Cc1ncsc1-c1ccc([C@H](C)NC(=O)[C@@H]2C[C@@H](O)CN2C(=O)[C@@H](NC(=O)CN2CCC(COc3ccc(-c4ccc(N(C(=O)NCc5ccccc5)[C@H]5CC[C@H](Nc6ccc(C#N)cn6)CC5)cc4)cn3)CC2)C(C)(C)C)cc1 [Formula 12]	0.5 to 1 µM	0.1 to 0.5 µM		
Cc1ncsc1-c1ccc([C@H](C)NC(=O)[C@@H]2C[C@@H](O)CN2C(=O)[C@@H](NC(=O)CC#CCCOc2ccc(-c3ccc(N(C(=O)NCc4ccccc4)[C@H]4CC[C@H](Nc5ccc(C#N)cn5)CC4)cc3)cn2)C(C)(C)C)cc1 [Formula 13]	3 to 10 µM	3 to 10 µM		
Cc1ncsc1-c1ccc([C@H](C)NC(=O)[C@@H]2C[C@@H](O)CN2C(=O)[C@@H](NC(=O)CN2CC(Oc3ccc(-c4ccc(N(C(=O)NCc5ccccc5)[C@H]5CC[C@H](Nc6ccc(C#N)cn6)CC5)cc4)cn3)C2)C(C)(C)C)cc1 [Formula 14]	3 to 10 µM		−	
Cc1ncsc1-c1ccc([C@H](C)NC(=O)[C@@H]2C[C@@H](O)CN2C(=O)[C@@H](NC(=O)CC#Cc2ccc(-c3ccc(N(C(=O)NCc4ccccc4)[C@H]4CC[C@H](Nc5ccc(C#N)cn5)CC4)cc3)cn2)C(C)(C)C)cc1 [Formula 15]			−	−
Cc1ncsc1-c1ccc([C@H](C)NC(=O)[C@@H]2C[C@@H](O)CN2C(=O)[C@@H](NC(=O)CC#CCOc2ccc(-c3ccc(N(C(=O)NCc4ccccc4)[C@H]4CC[C@H](Nc5ccc(C#N)cn5)CC4)cc3)cn2)C(C)(C)C)cc1 [Formula 16]	3 to 10 µM	3 to 10 µM		
Cc1ncsc1-c1ccc([C@H](C)NC(=O)[C@@H]2C[C@@H](O)CN2C(=O)[C@@H](NC(=O)CN2CCN(c3ccc(-c4ccc(N(C(=O)NCc5ccccc5)[C@H]5CC[C@H](Nc6ccc(C#N)cn6)CC5)cc4)cn3)CC2)C(C)(C)C)cc1 [Formula 71]		< 0.1 µM		
Cc1ncsc1-c1ccc([C@H](C)NC(=O)[C@@H]2C[C@@H](O)CN2C(=O)[C@@H](NC(=O)CN2CCN(c3ccc(-c4ccc(N(C(=O)NCc5ccccc5)[C@H]5CC[C@H](Nc6ccc(C#N)cn6)CC5)cc4)cn3)CC2)C(C)(C)C)cc1 [Formula 72]		< 0.1 µM		
Cc1ncsc1-c1ccc([C@H](C)NC(=O)[C@@H]2C[C@@H](O)CN2C(=O)[C@@H](NC(=O)CN2CCN(c3ccc(-c4ccc(N(C(=O)NCc5ccccc5)[C@H]5CC[C@H](Nc6ccc(C#N)cn6)CC5)cc4)cn3)CC2)C(C)(C)C)cc1 [Formula 74]		< 0.1 µM		
Cc1ncsc1-c1ccc([C@H](C)NC(=O)[C@@H]2C[C@@H](O)CN2C(=O)[C@@H](NC(=O)CN2CCN(c3ccc(-c4ccc(N(C(=O)NCc5ccccc5)[C@H]5CC[C@H](Nc6ccc(C#N)cn6)CC5)cc4)cn3)CC2)C(C)(C)C)cc1 [Formula 75]		< 0.1 µM		
Cc1ncsc1-c1ccc([C@H](C)NC(=O)[C@@H]2C[C@@H](O)CN2C(=O)[C@@H](NC(=O)CN2CCN(c3ccc(-c4ccc(N(C(=O)NCc5ccccc5)[C@H]5CC[C@H](Nc6ccc(C#N)cn6)CC5)cc4)cn3)CC2)C(C)(C)C)cc1 [Formula 76]		< 0.1 µM		
Cc1ncsc1-c1ccc([C@H](C)NC(=O)[C@@H]2C[C@@H](O)CN2C(=O)[C@@H](NC(=O)CN2CCN(c3ccc(-c4ccc(N(C(=O)NCc5ccccc5)[C@H]5CC[C@H](Nc6ccc(C#N)cn6)CC5)cc4)cn3)CC2)C(C)(C)C)cc1 [Formula 77]		< 0.1 µM		
Cc1ncsc1-c1ccc([C@H](C)NC(=O)[C@@H]2C[C@@H](O)CN2C(=O)[C@@H](NC(=O)CN2CCN(c3ccc(-c4ccc(N(C(=O)NCc5ccccc5)[C@H]5CC[C@H](Nc6ccc(C#N)cn6)CC5)cc4)cn3)CC2)C(C)(C)C)cc1 [Formula 78]		< 0.1 µM		
